# Results as given in paper PMC11242993, “Evaluation of the Therapeutic Potential of Sulfonyl Urea Derivatives as Soluble Epoxide Hydrolase (sEH) Inhibitors” (Molecules, 2024).
# Tests used:
# mouse recombinant sEH = target: T1, mouse recombinant sEH (Mus musculus, UniProt P34914); assay: Fluorescence-based sEH activity assay (PHOME substrate), mouse enzyme; format: biochemical; conditions: dose-dependent assay; read-out: Mouse sEH Inhibition IC50
# T1 sequence (P34914 1-554): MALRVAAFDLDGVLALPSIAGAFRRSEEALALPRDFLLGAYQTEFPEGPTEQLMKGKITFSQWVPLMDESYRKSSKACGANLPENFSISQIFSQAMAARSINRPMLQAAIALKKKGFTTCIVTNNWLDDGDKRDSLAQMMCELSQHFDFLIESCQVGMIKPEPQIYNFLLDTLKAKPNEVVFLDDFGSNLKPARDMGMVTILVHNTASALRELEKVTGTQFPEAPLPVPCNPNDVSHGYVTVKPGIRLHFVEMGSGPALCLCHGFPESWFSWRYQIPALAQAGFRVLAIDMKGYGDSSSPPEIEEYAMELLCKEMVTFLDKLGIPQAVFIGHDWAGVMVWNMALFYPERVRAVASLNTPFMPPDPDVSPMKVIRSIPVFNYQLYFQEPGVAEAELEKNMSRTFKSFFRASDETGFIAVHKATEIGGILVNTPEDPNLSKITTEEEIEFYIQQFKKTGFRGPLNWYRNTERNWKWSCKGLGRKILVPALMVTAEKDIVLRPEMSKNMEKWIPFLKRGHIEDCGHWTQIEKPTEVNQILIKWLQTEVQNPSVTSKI
# Procedure: A fluorescence-based sEH activity assay provided a convenient method for screening human epoxide hydrolase inhibitors. The assay utilized (3-Phenyl-oxiranyl)-acetic acid cyano-(6-methoxy-naphthalen-2-yl)-methyl ester (PHOME) as a substrate. […] The inhibitory function of the compounds on sEH activity was tested as detailed in the product manual from Cayman Chemical. Briefly, 3 mL sEH assay buffer (10×) was diluted with 27 mL HPLC-grade water. This final assay buffer, 25 mM bis-tris (pH 7.0), was used in the assay and for the dilution of the soluble epoxide hydrolase (sEH) enzyme. Amounts of 12 μL each of human and mouse recombinant sEH were thawed on ice. Prior to assaying, 588 μL cold assay buffer was added directly to the enzyme vial. An amount of 190 μL assay buffer and 5 μL solvent (40% DMSO in assay buffer) were added to the background wells. In the 100% initial activity wells, 185 μL assay buffer, 5 μL sEH, and 5 μL solvent were added. In inhibitor wells, 185 μL assay buffer, 5 μL solution of the synthesized compounds, and 5 μL of recombinant enzyme solution were added. To start the reaction, 5 μL of PHOME was added to each well at a final concentration of 0.25 mM. The microwell plate was shaken carefully for 10 s and covered with a plate cover.
# Average fluorescence (AF) of the background wells and 100% initial activity in the wells and of each of the inhibitors were determined. The background AF was subtracted from the 100% initial activity and inhibitor AFs. The % sEH activity is calculated as (inhbitited AF/% 100 initial activity) × 100.
# Multiple concentrations of the inhibitors were tested followed by plotting of the percent activity as a function of inhibitor concentration to determine the IC50 values.
# Caco-2 cells = assay: Caco-2 permeability; format: in vitro ADME
# Procedure: Caco-2 cells were cultured in 75 cm^2 flasks to 80–90% confluence according to the ATCC and Millipore recommendations in a humidified atmosphere at 37 °C and 5% CO2. Cells were detached with a trypsin/EDTA solution, resuspended in the complete medium containing DMEM high glucose ([…]) with L-glutamine (4 mM) supplemented with 10% heat-inactivated Fetal Bovine Serum, 1% non-essential amino acids, and 730 nM puromycin, and seeded at a density of 5 × 10^5 cells in a 75 cm^2 flask. After 5 days, cells were trypsinized and resuspended in the complete medium to a final concentration of 600 × 10^3 cells/mL. Of the cell suspension, 400 µL was added to each well of an HTS 24-Multiwell Insert System and 25 mL of prewarmed complete medium was added to the feeder tray. Caco-2 cells were incubated in the Multiwell Insert System for 6–10 days before the transport experiments. The medium in the filter plate and feeder tray was refreshed every other day. Prior to the transport experiment, the integrity of the monolayer was verified by measuring the transepithelial electrical resistance (TEER) for every well using a Millicell-ERS system ohm meter. The final TEER values were within the range of 150–600 Ω × cm^2, as required for the assay conditions. The 24-well insert plate was removed from its feeder plate and placed in a new sterile 24-well transport analysis plate. The inserts were washed with PBS after medium aspiration. Ketoprofen, atenolol, digoxin, and quinidine were used as reference compounds.
# To determine transport rates in the basolateral (B)-to-apical (A) direction, 1000 μL of the test compound solutions was added into the wells of the transport analysis plate, and the wells in the filter plate were filled with 300 μL of buffer (apical compartment).
# The effect of the inhibitor on the Pgp-mediated transport of the tested compounds was assessed by determining the bidirectional transport in the presence or absence of verapamil. The Caco-2 cells were preincubated for 30 min at 37 °C with 100 μM of verapamil in both apical and basolateral compartments. After removal of the preincubation medium, the test compounds with verapamil (100 μM) in transport buffer were added in donor wells, while the receiver wells were filled with the appropriate volume of transport buffer with 100 μM of verapamil. The final amounts of test and reference compounds were 10 μM each. The plates were incubated for 90 min at 37 °C under continuous shaking at 100 rpm. Aliquots of 75 μL were taken from the donor and receiver compartments for LC–MS/MS analysis. All samples were mixed with 2 volumes of acetonitrile followed by protein sedimentation by centrifuging at 10,000 rpm for 10 min. Supernatants were analyzed using the HPLC system coupled with a tandem mass spectrometer.
SMILES,IC50 (mouse recombinant sEH) [nM],Pgp substrate status from Caco-2 efflux ratio (Caco-2 cells),brain penetrability judged from Caco-2 permeability (Caco-2 cells)
O=C(NC12CC3CC(CC(C3)C1)C2)NS(=O)(=O)c1ccc(OC(F)(F)F)cc1 [Compound 4f],290,not Pgp substrates,brain penetrable
O=C(NC12CC3CC(CC(C3)C1)C2)NS(=O)(=O)c1ccc2ccccc2c1 [Compound 4l],190,–,brain penetrable
